According to patent publication US20210070748A1, “INHIBITORS OF BRUTONS TYROSINE KINASE” (Pharmacyclics LLC, priority 2015, published 2021):

How the values were obtained:
Type in all cases: biochemical
LCK = LCK (Homo sapiens, UniProt P06239); experiment: Inhibition of a panel of kinases, in vitro HotSpot kinase assay: LCK; conditions: D-compounds panel data; 1 μM ATP; read-out: IC50 LCK
TEC = target: T1, TEC (Homo sapiens, UniProt P42680); experiment: Inhibition of a panel of kinases, in vitro HotSpot kinase assay: TEC; conditions: D-compounds panel data; 1 μM ATP
T1 sequence (P42680 1-631): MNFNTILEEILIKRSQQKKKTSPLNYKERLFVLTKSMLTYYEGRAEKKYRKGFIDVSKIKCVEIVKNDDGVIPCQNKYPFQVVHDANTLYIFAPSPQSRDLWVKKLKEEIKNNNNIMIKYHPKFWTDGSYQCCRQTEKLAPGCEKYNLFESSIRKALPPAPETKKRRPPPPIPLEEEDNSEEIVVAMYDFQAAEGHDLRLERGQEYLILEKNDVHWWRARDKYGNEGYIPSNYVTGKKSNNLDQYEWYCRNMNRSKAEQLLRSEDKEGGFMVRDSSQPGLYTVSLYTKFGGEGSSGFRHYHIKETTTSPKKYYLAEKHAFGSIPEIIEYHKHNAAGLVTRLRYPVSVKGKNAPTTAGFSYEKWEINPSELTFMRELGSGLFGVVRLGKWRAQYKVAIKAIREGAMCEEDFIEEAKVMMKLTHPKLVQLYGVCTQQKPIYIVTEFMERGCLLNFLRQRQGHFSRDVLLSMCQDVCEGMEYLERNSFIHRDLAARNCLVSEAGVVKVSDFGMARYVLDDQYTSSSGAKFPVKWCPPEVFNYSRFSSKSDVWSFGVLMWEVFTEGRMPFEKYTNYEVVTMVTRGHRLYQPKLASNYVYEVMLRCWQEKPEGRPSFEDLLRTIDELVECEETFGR
Method: (§1) The degree of inhibition of a panel of kinases is determined using the in vitro HotSpot kinase assay (purified enzymes, ^33P-ATP, an appropriate substrate and 1 μM ATP).

BTK-WT = target: T2, BTK-WT (Homo sapiens, UniProt Q06187); experiment: Btk in vitro inhibitory activity (one of Method A TR-FRET, Method B electrophoretic mobility shift, Method C radiometric filter binding); conditions: D-compounds panel data; read-out: IC50 BTK-WT
T2 construct: purified from insect cells as a full-length construct containing an N-terminal 6X-His tag; His6 (N); made in house; host or cells: insect cells (baculovirus Sf21 in Method B)

SRC = SRC (Homo sapiens, UniProt P12931); experiment: Inhibition of a panel of kinases, in vitro HotSpot kinase assay: SRC; conditions: D-compounds panel data; 1 μM ATP
Method: as §1

SRC, sequence (P12931 whole entry): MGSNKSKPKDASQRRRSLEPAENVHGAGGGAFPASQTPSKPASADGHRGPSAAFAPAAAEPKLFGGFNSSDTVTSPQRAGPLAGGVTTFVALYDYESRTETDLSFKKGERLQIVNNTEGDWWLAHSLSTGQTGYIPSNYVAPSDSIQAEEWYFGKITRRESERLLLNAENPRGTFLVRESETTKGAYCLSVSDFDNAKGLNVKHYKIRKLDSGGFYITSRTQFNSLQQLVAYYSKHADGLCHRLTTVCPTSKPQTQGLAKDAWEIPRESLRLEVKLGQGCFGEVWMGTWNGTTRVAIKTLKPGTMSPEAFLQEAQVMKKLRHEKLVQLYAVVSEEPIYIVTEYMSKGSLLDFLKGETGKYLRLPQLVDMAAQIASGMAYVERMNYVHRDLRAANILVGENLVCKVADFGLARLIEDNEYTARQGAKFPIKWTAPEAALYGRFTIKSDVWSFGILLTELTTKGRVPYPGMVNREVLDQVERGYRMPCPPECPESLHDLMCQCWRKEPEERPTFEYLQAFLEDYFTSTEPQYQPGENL
T2 sequence (Q06187 whole entry): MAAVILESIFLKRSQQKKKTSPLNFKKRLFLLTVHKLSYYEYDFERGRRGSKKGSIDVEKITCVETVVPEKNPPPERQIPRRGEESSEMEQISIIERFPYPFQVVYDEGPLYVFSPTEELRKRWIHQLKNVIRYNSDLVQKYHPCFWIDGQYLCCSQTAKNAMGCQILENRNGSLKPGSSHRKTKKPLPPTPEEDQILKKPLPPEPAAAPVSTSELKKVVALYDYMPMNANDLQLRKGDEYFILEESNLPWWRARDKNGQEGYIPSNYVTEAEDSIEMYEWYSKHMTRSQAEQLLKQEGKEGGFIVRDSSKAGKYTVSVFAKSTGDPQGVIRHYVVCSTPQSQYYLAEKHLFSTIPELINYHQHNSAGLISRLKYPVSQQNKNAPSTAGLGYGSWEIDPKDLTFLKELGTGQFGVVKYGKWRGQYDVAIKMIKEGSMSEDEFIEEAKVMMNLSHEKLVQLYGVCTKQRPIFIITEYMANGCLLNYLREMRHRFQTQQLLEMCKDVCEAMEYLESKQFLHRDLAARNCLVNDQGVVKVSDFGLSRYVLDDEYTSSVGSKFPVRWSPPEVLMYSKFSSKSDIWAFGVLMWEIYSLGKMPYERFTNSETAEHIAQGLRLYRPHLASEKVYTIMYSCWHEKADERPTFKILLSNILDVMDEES
LCK, sequence (P06239 whole entry): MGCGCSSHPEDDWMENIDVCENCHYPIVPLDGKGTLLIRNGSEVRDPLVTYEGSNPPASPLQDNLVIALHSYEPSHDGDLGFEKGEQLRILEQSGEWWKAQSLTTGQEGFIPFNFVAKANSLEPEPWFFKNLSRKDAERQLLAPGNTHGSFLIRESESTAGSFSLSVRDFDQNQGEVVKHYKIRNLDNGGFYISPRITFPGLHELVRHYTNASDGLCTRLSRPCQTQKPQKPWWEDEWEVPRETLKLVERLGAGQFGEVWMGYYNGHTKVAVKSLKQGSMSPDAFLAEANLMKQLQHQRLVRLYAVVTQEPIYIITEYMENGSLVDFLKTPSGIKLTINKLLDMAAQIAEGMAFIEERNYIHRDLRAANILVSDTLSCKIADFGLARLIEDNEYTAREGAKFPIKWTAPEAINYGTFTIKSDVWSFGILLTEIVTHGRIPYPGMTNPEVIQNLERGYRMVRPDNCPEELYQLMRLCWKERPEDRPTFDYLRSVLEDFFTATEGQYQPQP

Row | IC50 (LCK) [nM] | IC50 (TEC) [nM] | IC50 (BTK-WT) [nM] | IC50 (SRC) [nM] | Compound
1 | 10 to 100 | ≤ 10 | ≤ 10 | 10 to 100 | C[C@@H]1[C@H](NC(=O)c2ccc(C3CC3)cc2)CCCN1c1nnc(C(N)=O)c(Nc2cnn(C)c2)n1 [Example D-277, 3-[(2R,3R)-3-(4-cyclopropylbenzamido)-2-methylpiperidin-1-yl]-5-[(1-methyl-1H-pyrazol-4-yl)amino]-1,2,4-triazine-6-carboxamide]
2 | > 10000 | > 10000 | > 10000 | > 10000 | C[C@@H]1[C@H](NC(=O)c2ccc(C3CC3)cc2)CCCN1c1cnc(C(N)=O)c(Nc2cn(C)nc2C(F)(F)F)n1 [Example D-278, 5-[(2R,3R)-3-(4-cyclopropylbenzamido)-2-methylpiperidin-1-yl]-3-{[1-methyl-3-(trifluoromethyl)-1H-pyrazol-4-yl]amino}pyrazine-2-carboxamide]
3 | 100 to 1000 | ≤ 10 | ≤ 10 | 100 to 1000 | C[C@@H]1[C@H](NC(=O)c2ccc(C3CC3)cc2)CCCN1c1cnc(C(N)=O)c(Nc2cnn(C3CC3)c2)n1 [Example D-279, 3-[(1-cyclopropyl-1H-pyrazol-4-yl)amino]-5-[(2R,3R)-3-(4-cyclopropylbenzamido)-2-methylpiperidin-1-yl]pyrazine-2-carboxamide]
4 | < 10 | ≤ 10 | ≤ 10 | ≤ 10 | C[C@@H]1[C@H](NC(=O)c2ccc(C3CC3)cc2)CCCN1c1cnc(C(N)=O)c(Nc2cnn(C3CCNCC3)c2)n1 [Example D-280, 5-[(2R,3R)-3-(4-cyclopropylbenzamido)-2-methylpiperidin-1-yl]-3-{[1-(piperidin-4-yl)-1H-pyrazol-4-yl]amino}pyrazine-2-carboxamide]
5 | 100 to 1000 | 10 to 100 | ≤ 10 | 100 to 1000 | C[C@@H]1[C@H](NC(=O)c2ccc(C3CC3)cc2)CCCN1c1cnc(C(N)=O)c(Nc2cnn(CCO)c2)n1 [Example D-281, 5-[(2R,3R)-3-(4-cyclopropylbenzamido)-2-methylpiperidin-1-yl]-3-{[I-(2-hydroxyethyl)-1H-pyrazol-4-yl]amino}pyrazine-2-carboxamide]
6 | 100 to 1000 | 10 to 100 | ≤ 10 | 100 to 1000 | C[C@@H]1[C@H](NC(=O)c2ccc(C3CC3)cc2)CCCN1c1cnc(C(N)=O)c(Nc2cn[nH]c2)n1 [Example D-282, 5-[(2R,3R)-3-(4-cyclopropylbenzamido)-2-methylpiperidin-1-yl]-3-[(1H-pyrazol-4-yl)amino]pyrazine-2-carboxamide]
7 | 10 to 100 | ≤ 10 | ≤ 10 | 10 to 100 | CC(=O)N1CCC(n2cc(Nc3nc(N4CCC[C@@H](NC(=O)c5ccc(C6CC6)cc5)[C@H]4C)cnc3C(N)=O)cn2)CC1 [Example D-283, 3-{[1-(1-acetylpiperidin-4-yl)-1H-pyrazol-4-yl]amino}-5-[(2R,3R)-3-(4-cyclopropylbenzamido)-2-methylpiperidin-1-yl]pyrazine-2-carboxamide]
8 | 10 to 100 | ≤ 10 | ≤ 10 | 10 to 100 | C[C@@H]1[C@H](NC(=O)c2ccc(C3CC3)cc2)CCCN1c1cnc(C(N)=O)c(Nc2cnn(-c3ccncc3)c2)n1 [Example D-284, 5-[(2R,3R)-3-(4-cyclopropylbenzamido)-2-methylpiperidin-1-yl]-3-{[1-(pyridin-4-yl)-1H-pyrazol-4-yl]amino}pyrazine-2-carboxamide]
9 | 100 to 1000 | ≤ 10 | ≤ 10 | 100 to 1000 | C[C@@H]1[C@H](NC(=O)c2ccc(C3CC3)cc2)CCCN1c1cnc(C(N)=O)c(Nc2cnn(CC#N)c2)n1 [Example D-287, 3-{[1-(cyanomethyl)-1H-pyrazol-4-yl]amino}-5-[(2R,3R)-3-(4-cyclopropylbenzamido)-2-methylpiperidin-1-yl]pyrazine-2-carboxamide]
10 | 1000 to 10000 | 100 to 1000 | 10 to 100 | 1000 to 10000 | C[C@@H]1[C@H](NC(=O)c2ccc(C3CC3)cc2)CCCN1c1cnc(C(N)=O)c(Nc2cnn(C)c2F)n1 [Example D-290, 5-[(2R,3R)-3-(4-cyclopropylbenzamido)-2-methylpiperidin-1-yl]-3-[(5-fluoro-1-methyl-1H-pyrazol-4-yl)amino]pyrazine-2-carboxamide]
11 | > 10000 | 10 to 100 | ≤ 10 | 10 to 100 | C[C@@H]1[C@H](NC(=O)c2ccc(C3CC3)cc2)CCCN1c1cnc(C(N)=O)c(Nc2cnn(C3CCN(CC(F)(F)F)CC3)c2)n1 [Example D-293, 5-[(2R,3R)-3-(4-cyclopropylbenzamido)-2-methylpiperidin-1-yl]-3-({1-[1-(2,2,2-trifluoroethyl)piperidin-4-yl]-1H-pyrazol-4-yl}amino)pyrazine-2-carboxamide]

The next lines start with the compound.

Row | Compound | IC50 (LCK) [nM] | IC50 (TEC) [nM] | IC50 (BTK-WT) [nM] | IC50 (SRC) [nM]
12 | C[C@@H]1[C@H](NC(=O)c2ccc(C(C)(C)C)cc2)CCCN1c1nnc(C(N)=O)c(Nc2cnn(C)c2)n1 [Example D-285, 3-[(2R,3R)-3-(4-tert-butylbenzamido)-2-methylpiperidin-1-yl]-5-[(1-methyl-1H-pyrazol-4-yl)amino]-1,2,4-triazine-6-carboxamide] | 10 to 100 | ≤ 10 | ≤ 10 | 10 to 100
13 | C[C@@H]1[C@H](NC(=O)N(C)C)CCCN1c1nnc(C(N)=O)c(Nc2cnn(C)c2)n1 [Example D-286, 3-[(2R,3R)-3-[(dimethylcarbamoyl)amino]-2-methylpiperidin-1-yl]-5-[(1-methyl-1H-pyrazol-4-yl)amino]-1,2,4-triazine-6-carboxamide] | 100 to 1000 | 10 to 100 | ≤ 10 | 10 to 100
14 | C[C@@H]1[C@H](NC(=O)c2ccc(C3CC3)cc2)CCCN1c1cnc(C(N)=O)c(Nc2cnn(C3CCN(C(=O)C4CC4)CC3)c2)n1 [Example D-288, 3-{[1-(1-cyclopropanecarbonylpiperidin-4-yl)-1H-pyrazol-4-yl]amino}-5-[(2R,3R)-3-(4-cyclopropylbenzamido)-2-methylpiperidin-1-yl]pyrazine-2-carboxamide] | 100 to 1000 | ≤ 10 | ≤ 10 | 10 to 100
15 | C[C@@H]1[C@H](NC(=O)c2ccc(C3CC3)cc2)CCCN1c1cnc(C(N)=O)c(Nc2cnn(C3CCN(C(=O)C4(C)COC4)CC3)c2)n1 [Example D-289, 5-[(2R,3R)-3-(4-cyclopropylbenzamido)-2-methylpiperidin-1-yl]-3-({1-[1-(3-methyloxetane-3-carbonyl)piperidin-4-yl]-1H-pyrazol-4-yl}amino)pyrazine-2-carboxamide] | 10 to 100 | ≤ 10 | ≤ 10 | ≤ 10
16 | C[C@@H]1[C@H](NC(=O)c2ccc(C(C)(C)C)cc2)CCCN1c1cnc(C(N)=O)c(Nc2ccc(OC3CCN(C)CC3)cc2)n1 [Example D-291, 5-[(2R,3R)-3-(4-tert-butylbenzamido)-2-methylpiperidin-1-yl]-3-({4-[(1-methylpiperidin-4-yl)oxy]phenyl}amino)pyrazine-2-carboxamide] | 10 to 100 | 10 to 100 | ≤ 10 | 10 to 100
17 | C[C@@H]1[C@H](NC(=O)c2ccc(C(C)(C)C#N)cc2)CCCN1c1cnc(C(N)=O)c(Nc2ccc(OC3CCN(C)CC3)cc2)n1 [Example D-292, 5-[(2R,3R)-3-[4-(1-cyano-1-methylethyl)benzamido]-2-methylpiperidin-1-yl]-3-({4-[(1-methylpiperidin-4-yl)oxy]phenyl}amino)pyrazine-2-carboxamide] | 10 to 100 | ≤ 10 | ≤ 10 | 10 to 100
18 | C[C@@H]1[C@H](NC(=O)c2ccc(C3CC3)nc2)CCCN1c1cnc(C(N)=O)c(Nc2ccc(OC3CCN(C)CC3)cc2)n1 [Example D-294, 5-[(2R,3R)-3-(6-cyclopropylpyridine-3-amido)-2-methylpiperidin-1-yl]-3-({4-[(1-methylpiperidin-4-yl)oxy]phenyl}amino)pyrazine-2-carboxamide] | 10 to 100 | ≤ 10 | ≤ 10 | 10 to 100
19 | CC(=O)N1CCN(c2ccc(Nc3nc(N4CCC[C@@H](NC(=O)c5ccc(C6CC6)cc5)[C@H]4C)cnc3C(N)=O)cc2)CC1 [Example D-295, 3-{[4-(4-acetylpiperazin-1-yl)phenyl]amino}-5-[(2R,3R)-3-(4-cyclopropylbenzamido)-2-methylpiperidin-1-yl]pyrazine-2-carboxamide] | 10 to 100 | ≤ 10 | ≤ 10 | 10 to 100
